Paper PMC12788799, “Affinity-guided labeling reveals P2X7 nanoscale membrane redistribution during BV2 microglial activation” (eLife, 2026)
Changes are numbered by the printed parent chain.

How the values were obtained:
Type in all cases: cell-based
rat P2X7 (rP2X7) [1] = target: T1, rat P2X7 (rP2X7) (Rattus norvegicus, UniProt Q64663); test: Whole-cell patch-clamp, inhibition of BzATP-evoked currents at […] in HEK293T cells; also blocks X7-uP labeling; design: gene P2rx7
T1 sequence (Q64663 1-595): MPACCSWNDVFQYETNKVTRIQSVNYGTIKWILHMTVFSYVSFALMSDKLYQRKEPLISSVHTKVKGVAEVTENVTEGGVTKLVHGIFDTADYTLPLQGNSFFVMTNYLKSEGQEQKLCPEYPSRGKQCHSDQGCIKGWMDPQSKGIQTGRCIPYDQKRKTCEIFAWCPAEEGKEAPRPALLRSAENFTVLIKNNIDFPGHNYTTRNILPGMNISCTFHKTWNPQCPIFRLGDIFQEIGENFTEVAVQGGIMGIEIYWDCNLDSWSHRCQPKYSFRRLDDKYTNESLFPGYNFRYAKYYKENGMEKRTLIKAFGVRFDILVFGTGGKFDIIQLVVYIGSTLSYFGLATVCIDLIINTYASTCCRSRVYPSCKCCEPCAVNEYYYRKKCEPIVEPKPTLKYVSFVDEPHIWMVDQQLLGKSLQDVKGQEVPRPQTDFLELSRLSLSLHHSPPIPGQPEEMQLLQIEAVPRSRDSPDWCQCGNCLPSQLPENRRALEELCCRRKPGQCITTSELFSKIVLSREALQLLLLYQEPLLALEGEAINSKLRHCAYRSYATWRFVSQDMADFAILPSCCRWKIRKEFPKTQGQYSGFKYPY

mouse P2X7 [2] = target: T2, mouse P2X7 (Mus musculus, UniProt Q9Z1M0); test: Competition:[…] blocks X7-uP labeling of endogenous P2X7 (pull-down western blot, confocal)
T2 construct: gene P2rx7; endogenous P2X7 in BV2 cells
T2 sequence (Q9Z1M0 1-595): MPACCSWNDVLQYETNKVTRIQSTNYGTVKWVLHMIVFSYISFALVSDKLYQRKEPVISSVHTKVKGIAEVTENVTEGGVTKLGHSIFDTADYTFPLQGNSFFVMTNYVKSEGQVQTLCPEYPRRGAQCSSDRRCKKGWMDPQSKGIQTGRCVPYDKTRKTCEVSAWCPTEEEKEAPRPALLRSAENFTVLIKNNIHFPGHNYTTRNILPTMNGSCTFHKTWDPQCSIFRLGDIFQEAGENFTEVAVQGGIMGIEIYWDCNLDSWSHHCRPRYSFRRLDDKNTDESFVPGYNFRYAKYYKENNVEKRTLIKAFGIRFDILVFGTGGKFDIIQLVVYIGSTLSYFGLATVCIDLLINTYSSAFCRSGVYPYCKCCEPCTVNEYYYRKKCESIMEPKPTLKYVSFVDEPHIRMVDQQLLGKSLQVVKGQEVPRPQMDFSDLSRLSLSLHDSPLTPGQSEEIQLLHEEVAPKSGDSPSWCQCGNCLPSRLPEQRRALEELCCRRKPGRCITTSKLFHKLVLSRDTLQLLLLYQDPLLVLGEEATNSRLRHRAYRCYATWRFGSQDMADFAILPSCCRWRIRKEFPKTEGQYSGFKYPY

rat P2X7 (rP2X7) [3] = target: T3, rat P2X7 (rP2X7) (Rattus norvegicus, UniProt Q64663, K82A/K117A); test: Whole-cell patch-clamp, reversible inhibition of BzATP-evoked currents by […] X7-uP in HEK293T cells
T3 construct: gene P2rx7; P2X7-mScarlet background
T3 sequence (Q64663 1-595 K82A/K117A): T1 sequence (Q64663 1-595) with K82A, K117A

mouse P2X7 [4] = target: T2, mouse P2X7; test: Covalent biotinylation of endogenous receptor with […] X7-uP, pull-down western blot and confocal imaging, blocked by AZ10606120 or A740003
rat P2X7 (rP2X7) [5] = target: T1, rat P2X7 (rP2X7); test: Kinetics of covalent biotinylation in HEK293T cells (pull-down western blot); whole-cell patch-clamp inhibition of BzATP currents; design: gene P2rx7; P2X7c-myc

Row | % labeled (mouse P2X7 [4]) [% labeled] | Kd (rat P2X7 (rP2X7) [5]) [µM] | Structure (SMILES) | inhibition at 1 µM (rat P2X7 (rP2X7) [1]) [%] | Competition: 10 μM blocks X7-uP labeling of endogenous P2X7 (pull-down western b) (mouse P2X7 [2]) | Whole-cell patch-clamp, reversible inhibition of BzATP-evoked currents by 0.5 μM (rat P2X7 (rP2X7) [3])
1 |  |  | O=C(CC12CC3CC(CC(C3)C1)C2)Nc1cccc2nc(NCCNCCO)ccc12 [AZ10606120] | 99.7 | This band disappeared upon co-incubation with AZ10606120 or A740003 | 
2 | 80 | 7.3 | N#CCN(C(=O)CCOCCOCCOCCOCCNC(=O)CCCC[C@@H]1SC[C@@H]2NC(=O)N[C@@H]21)S(=O)(=O)c1ccc(C(=O)NCCNc2ccc3c(NC(=O)CC45CC6CC(CC(C6)C4)C5)cccc3n2)cc1 [X7-uP, N-(2-((5-(2-(adamantan-1-yl)acetamido)quinolin-2-yl)amino)ethyl)–4-(N-(cyanomethyl)-N-(17-oxo-21-((3aR,4R,6aS)–2-oxo-hexahydro-1H-thieno[3,4-d]imidazol-4-yl)–4,7,10,13-tetraoxa-16-azahenico-sanoyl)sulfamoyl)benzamide] |  |  | the double K82A/K117A mutant did not affect the ability of X7-uP to inhibit BzATP-evoked currents
